By melting point is commonly meant the temperature, or range, at which the solid turns liquid.

The values that follow come from a melting point compilation (Tetko et al.; mined from patent text by program, amines drawn as free bases though some values may be those of a salt).

On to `CCOC(=O)C(C)Oc1ccc(Sc2ccc(C(F)(F)F)cc2[N+](=O)[O-])cc1` (centres undefined), for which the melting point fell in the range of 63 to 64 °C.

`Nc1cc(S(=O)c2ccc(-c3ccccc3)cc2)ccc1Cl` (centres undefined) had a melting point of 134 to 137 °C.

Turning to `CCNC(=O)N=C(NC(=O)Nc1ccccc1C)SC`, the melting point was 152 to 153 °C.

`O=C(O)c1cc(NCc2c(F)c(F)c(C(F)(F)F)c(F)c2F)ccc1[N+](=O)[O-]`: the melting point is 121 °C.

`CN(CCOc1ccc(CC2SC(=O)NC2=O)cc1)C(=O)Nc1ccccc1` (centres undefined) showed a melting point of 88 to 90 °C.

`Fc1ccc(-c2csc(NN=Cc3cn(Cc4ccc(Cl)cc4Cl)c4ccccc34)n2)cc1` had a melting point of 198 °C.

For `CSCON=C(C(=O)O)c1nccc(NC=O)n1`, the melting point was in the range of 80 to 85 °C.

`CN(C)CCNc1ccc(-c2n[nH]c3ncccc23)cc1` came in with a melting point of 165 to 167 °C.

`COc1ccc(CNc2cc(Cl)ncc2C=O)cc1Cl` showed a melting point of 146 to 148 °C.

`O=c1nc(N2CCC(O)CC2)sc2ncccc12` yielded a melting point of 206 to 207 °C.

The molecule `FC(F)(F)/C(=C(\c1ccccc1)c1ccc(OCCN2CCCC2)cc1)c1ccccc1` gave a melting point of 84.5 to 86 °C.

For `CSc1ccc(-c2sc(NC(C)=O)nc2/C=C/c2ccc([N+](=O)[O-])cc2)cc1`, the melting point lay in the range of 228 to 230 °C.

In turn, `COc1ccc2nc(-n3ccnc3)nc(NCCSC)c2c1` registered a melting point of 168 to 178 °C.

`O=C(O)c1ccc(Cc2cc3cc(C(F)(F)F)ccc3n2S(=O)(=O)c2cccc(C3CC3)c2)cc1` showed a melting point of 147 °C.

For the molecule `Cc1ccc(S(=O)(=O)N2Cc3cncnc3-c3ccc(Cl)cc3C2c2ccccc2Cl)cc1` (centres undefined), the melting point was 200 to 201 °C.

`CCCCn1c(C)nnc1SC(N)=O` displayed a melting point of 112 to 114 °C.

With `OC1(CNc2nc3ccccc3s2)CCN(CC2COc3ccccc3O2)CC1` (centres undefined), the melting point came to 176 °C.

`CN(C)CCC(Cc1ccccc1C(=O)O)c1ccccc1` (centres undefined) had a melting point of 152 to 154 °C.

For the molecule `O=C1c2cccc(NC(=S)Nc3ccccn3)c2C2CCCCN12` (centres undefined), the melting point came to 195 °C.

The molecule `COC(=O)CC(=O)NC1CCCCC1` registered a melting point of 77 to 78 °C.

`COC(=O)c1ccccc1-c1nc(COc2ccc(CO)cc2OC)c(C)o1` registered a melting point of 100 to 101 °C.

The molecule `CCOC(=O)c1c(C(F)(F)F)nc(C(F)F)c(C(=O)OC)c1NCC#N` had a melting point of 87 to 89 °C.

For the molecule `C[Si](C)(C)/C=C/c1c(N)nc(C2CC2)nc1C(=O)O`, the melting point lay within 146 to 149 °C.

Molecule `Cn1cnc2c1c1n[nH]c(=S)n1c(=O)n2Cc1ccccc1` registered a melting point of 278 °C.

Molecule `NS(=O)(=O)c1cc2[nH]c(CCc3ccccc3)nc2cc1Cl` registered a melting point of 226 to 228 °C.

In turn, `CCC(=NNC(=O)c1ccccc1)c1cccnc1` came in with a melting point of 169 °C.

In the case of `COc1cc2c(cc1O)CCC(=O)N2Cc1cc(OC)c(OC)c(OC)c1`, the melting point fell in the range of 157 to 158 °C.

`OCc1nnc2n1-c1ccc(Cl)cc1C(c1ccccc1Cl)=NC2`: the melting point lay in the range of 236 to 239 °C.

Consider `CCCCc1c(Cc2ccc(-c3ccccc3C(=O)O)cc2)c(=O)nc2n1CC(=O)N2`, for which the melting point is 220 to 222 °C.

Regarding `CCn1c(C(=O)c2cc(C)cc(C=CC#N)c2)c(C(C)C)c(=O)[nH]c1=O`, the melting point lay in the range of 174 to 176 °C.

With `O=C(O)C=CC(=O)c1cc(Cl)c(Cl)cc1Cl`, the melting point was in the range of 177 to 181 °C.

`C=Cc1cc(CNC(=O)C(C)=Cc2ccc(C(C)(C)C)cc2)cc(F)c1NS(C)(=O)=O` displayed a melting point of 136 to 138 °C.

As for `CCCc1ccc(Cc2c(C(F)(F)F)[nH][nH]c2=O)cc1`, the melting point lay in the range of 114 to 116 °C.

Turning to `COC(=O)c1cc([N+](=O)[O-])cc(-c2ccc(NC(=O)OC(C)(C)C)cc2)c1C`, the melting point was in the range of 131 to 132 °C.

On to `COc1cc(OC)c2c(c1)Oc1cc(Br)ccc1CC2=O`, for which the melting point lay within 95 to 103 °C.

For the molecule `O=C(O)c1cc(-c2ccccc2)cc2c(-c3ccccc3)c([N+](=O)[O-])oc12`, the melting point was 207 to 209 °C.

Regarding `O=C(O)C1=CCC2CC(=O)N12` (centres undefined), the melting point lay within 172 to 174 °C.

The molecule `C#Cc1cnn2c(C3CC3)cc(-c3ccc(Cl)c(Cl)c3)nc12` came in with a melting point of 194 to 196 °C.

For the molecule `CC(C)(C)OC(=O)C1=Cc2cc(Br)ccc2OC1`, the melting point was 96 to 97 °C.

`CCC(=S)C1=C(C)NC2=C(C1)C(=O)c1ccccc12` registered a melting point of 240 °C.

Regarding `CC[C@H](C)CNC(=O)[C@@H](C[C@H](O)[C@H](CC1CCCCC1)NC(=O)[C@H](Cc1cscn1)NC(=O)OC(C)(C)C)C(C)(C)O`, the melting point is 190 to 193 °C.

For the molecule `Cc1ccccc1CC(=O)c1c(O)c2cccnc2n(-c2cccc(OC(F)(F)F)c2)c1=O`, the melting point was 132 to 134 °C.

`COc1c(Cl)cccc1N1CN(C)C(=S)n2ncnc21` had a melting point of 208 to 210 °C.

For the molecule `CCOC(=O)c1sc(SC)c2c1CCc1sc(C)nc1-2`, the melting point was in the range of 143 to 144 °C.

Molecule `CCN(CCO[N+](=O)[O-])C(=O)COC(=O)c1cc(S(N)(=O)=O)c(Cl)cc1NCc1ccco1` gave a melting point of 60 to 62 °C.

As to `OC(CCl)(CC(Cl)(Cl)Cl)c1cc(Cl)cc(Cl)c1` (centres undefined), the melting point was in the range of 69 to 70.5 °C.

On to `COc1ccnc(CCc2nc3cc(-c4ccc(S(=O)(=O)N5CCC(C(=O)c6ccccc6)CC5)cc4)cnc3[nH]2)c1`, for which the melting point is 174 to 175 °C.

Molecule `COc1cc(N)c(Cl)cc1C(=O)NCC1CCN(CCCCCC(=O)c2cc3ccccc3s2)CC1` came in with a melting point of 157 to 159 °C.

Molecule `O=C(NCc1cccnc1)C1CCCCC1` gave a melting point of 90 °C.

`CS(=O)C1C=Nc2cc(Cl)ccc2C1=O` (centres undefined) registered a melting point of 247 to 249 °C.

Take `CC(CS)C(=O)NC(CCCNC(=N)N)C(=O)O` (centres undefined): the melting point turned out to be 100 °C.

Consider `COCCCc1cc(N(C)Cc2ccc(-c3ccc(C(F)(F)F)cc3)nc2)ccc1OCC(=O)O`, for which the melting point was in the range of 72 to 76 °C.

Molecule `O=C(O)Cc1ccc(N2CC3=C(CCCC3)C2=O)cc1` came in with a melting point of 189 to 191 °C.

`Cc1ccc(S(=O)(=O)OCC(O)(CC(C)(C)c2ccccc2)C(F)(F)F)cc1` (centres undefined): the melting point was determined as 78 °C.

`COCC(=O)Nc1c(Cl)c(C)cc2nc(OC)c(OC)nc12`: the melting point lay within 170 to 171 °C.

The molecule `Cn1c(=O)c(C(=O)NC2CCCCC2)c(O)c2ccccc21` returned a melting point of 145 °C.

`O=C(NCc1ccccc1)n1c(=O)sc2c(Cl)cccc21` showed a melting point of 106 °C.

`CCCCCCCCCCCCCCC1Cc2ccc(C(=O)O)cc2N1C` (racemic) returned a melting point of 115 to 118 °C.

`c1cnnc(N2CCN(CCCOc3ccc(C4=NCCO4)cc3)CC2)c1` yielded a melting point of 145 °C.

In the case of `O=[N+]([O-])c1cc(Cl)c2cccnc2c1O`, the melting point lay in the range of 201 to 202 °C.

The molecule `CC(C)(Cl)Cn1ncc(OCc2ccc(I)nc2)c(Cl)c1=O` registered a melting point of 119 to 123 °C.

In the case of `O=C1CC(c2cccs2)CN1` (centres undefined), the melting point fell in the range of 75 to 76.5 °C.

With `CCOC(=O)c1cn(CC)c2nc(N3CCN(c4ccccc4)CC3)ncc2c1=O`, the melting point is 186 °C.

In turn, `COCCOc1ccn(O)c(=O)c1` yielded a melting point of 134 °C.

`C#CCN1C(=O)COc2cc(F)c(-n3nc4ccc(Cl)cn4c3=O)cc21` returned a melting point of 196 to 198 °C.

With `COc1ccc(Cc2cc(-c3ccc(Cl)cc3)sc2Cc2ccc(OC)cc2)cc1`, the melting point was in the range of 125 to 128 °C.

Molecule `Fc1ccc(NC(=S)NN2CC=CCC2)cc1` showed a melting point of 163 to 164 °C.

Molecule `COc1ccc(C2=NN(c3cccc(C(=O)N4CCOCC4)c3)C(=O)C(C)(C)C2)cc1OC` came in with a melting point of 108 to 109 °C.

For `CCOC(=O)c1ccc(OCc2ccc3ccccc3c2)c(OC)c1`, the melting point was 86 to 87 °C.

`COc1cn(-c2cc3c(cc2F)OC(F)(F)C(F)(F)O3)nc(-c2ccnn2-c2ccccc2)c1=O`: the melting point lay in the range of 192 to 194 °C.

In turn, `CCOC(=O)Cn1c(C(=O)NCc2nnc(C)n2-c2sc(CC)cc2C(=O)c2ccccc2)cc2ccccc21` registered a melting point of 129 to 131 °C.

`CCCn1nc2c(N)nc3c(c2c1CCCc1cc(-c2ccccc2)no1)CCCC3` showed a melting point of 154 to 155 °C.

In the case of `O=C(O)CCC(=O)c1ccc(-c2ccc(Br)cc2)cc1`, the melting point is 198 to 200 °C.

In turn, `O=[N+]([O-])c1cc(-c2cccc3ccccc23)c2nc(Cl)ccc2c1` had a melting point of 224 to 225 °C.

`CCOC(=O)c1ccc(OCCCCCCCc2cc(C)no2)cc1`: the melting point fell in the range of 60 to 61 °C.

`CN(C)C(=O)c1c(Cl)csc1-c1ncc(C(F)(F)F)cc1Cl` showed a melting point of 85 to 86 °C.

Consider `N[C@H]1CCN(c2ccc3c(C(=O)NCC4CCCCC4)cccc3n2)C1`, for which the melting point fell in the range of 127 to 128 °C.

As to `CCOC(=O)c1cc(CC)sc1Nc1ccc([N+](=O)[O-])cc1N`, the melting point is 174 to 176 °C.

On to `O=C1CCC(=O)N1Cc1nc2sc3c(c2c(-c2ccc(O)cc2)c1Cl)CCS(=O)C3` (centres undefined), for which the melting point lay within 274 to 276 °C.

As for `COCCN(C)Cc1ncc(C(=O)Nc2nc3c(OC)ccc(N4CCOCC4)c3s2)n1C`, the melting point lay within 176 to 178 °C.

Regarding `N#CC(C#N)(CCSC(F)(F)C(F)Cl)CC(F)(F)C(F)(F)C(F)(F)C(F)F` (centres undefined), the melting point was in the range of 78 to 80 °C.

On to `CCOC(=O)c1ncc2[nH]c3ccc(C(C)(C)C)cc3c2c1C`, for which the melting point fell in the range of 201 to 203 °C.

Molecule `CC(C)(SSc1ccccc1C(=O)Nc1ccc(S(N)(=O)=O)cc1)C(N)C(=O)O` (centres undefined) showed a melting point of 115 to 118 °C.

Regarding `COc1ccc2cc(C(C)=CC(C)=O)cc(F)c2c1`, the melting point is 126 to 127 °C.

`O=C(NC(=O)c1ccco1)C(=O)Oc1ccc([N+](=O)[O-])cc1` returned a melting point of 115 °C.

`O=C(Cc1cccs1)c1c(O)sc2ccccc12` had a melting point of 99 to 101 °C.

`Cc1ccc(C(=O)Nc2c(NC(=O)CN3CCSCC3)ccc3c2C(=O)c2ccccc2C3=O)cc1` displayed a melting point of 210 to 211 °C.

`CNS(=O)(=O)c1sc2ccccc2c1CC(=O)O` yielded a melting point of 190 to 192 °C.

The molecule `Cc1ncsc1CCOS(N)(=O)=O` gave a melting point of 80 to 83 °C.
